According to patent US7294710B2 (Japan Science and Technology Agency, priority 1999, dated 2007):

T1: nematode high-affinity choline transporter cho-1 (C48D1.3) (Caenorhabditis elegans, UniProt O02228)
T1 construct: injecting each cRNA prepared from candidate full-length cDNAs; expressed in transfected cells; host or cells: Xenopus oocytes (stage V to VI) microinjected with capped cRNA transcribed from modified pSPUTK vector
T1 sequence (O02228 1-576): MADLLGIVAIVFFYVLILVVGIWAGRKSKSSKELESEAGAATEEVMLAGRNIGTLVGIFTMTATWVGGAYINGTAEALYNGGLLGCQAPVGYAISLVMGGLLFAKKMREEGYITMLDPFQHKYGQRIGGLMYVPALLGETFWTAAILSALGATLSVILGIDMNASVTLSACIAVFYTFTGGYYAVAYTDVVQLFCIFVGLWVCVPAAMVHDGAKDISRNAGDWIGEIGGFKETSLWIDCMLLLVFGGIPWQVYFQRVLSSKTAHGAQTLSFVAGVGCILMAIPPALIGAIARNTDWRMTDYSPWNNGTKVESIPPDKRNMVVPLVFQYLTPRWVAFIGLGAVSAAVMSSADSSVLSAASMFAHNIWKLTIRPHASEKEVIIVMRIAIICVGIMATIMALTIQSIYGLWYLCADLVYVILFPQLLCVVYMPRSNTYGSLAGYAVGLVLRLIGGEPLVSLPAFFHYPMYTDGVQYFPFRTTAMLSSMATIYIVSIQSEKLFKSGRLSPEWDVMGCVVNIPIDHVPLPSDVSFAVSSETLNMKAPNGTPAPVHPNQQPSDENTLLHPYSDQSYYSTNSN

T2: rat CHT1 (high-affinity choline transporter) (Rattus norvegicus, UniProt Q9JMD7)
T2 construct: expressed in transfected cells; host or cells: Xenopus oocytes microinjected with CHT1 cRNA (clone in pSPUTK vector)
T2 sequence (Q9JMD7 1-580): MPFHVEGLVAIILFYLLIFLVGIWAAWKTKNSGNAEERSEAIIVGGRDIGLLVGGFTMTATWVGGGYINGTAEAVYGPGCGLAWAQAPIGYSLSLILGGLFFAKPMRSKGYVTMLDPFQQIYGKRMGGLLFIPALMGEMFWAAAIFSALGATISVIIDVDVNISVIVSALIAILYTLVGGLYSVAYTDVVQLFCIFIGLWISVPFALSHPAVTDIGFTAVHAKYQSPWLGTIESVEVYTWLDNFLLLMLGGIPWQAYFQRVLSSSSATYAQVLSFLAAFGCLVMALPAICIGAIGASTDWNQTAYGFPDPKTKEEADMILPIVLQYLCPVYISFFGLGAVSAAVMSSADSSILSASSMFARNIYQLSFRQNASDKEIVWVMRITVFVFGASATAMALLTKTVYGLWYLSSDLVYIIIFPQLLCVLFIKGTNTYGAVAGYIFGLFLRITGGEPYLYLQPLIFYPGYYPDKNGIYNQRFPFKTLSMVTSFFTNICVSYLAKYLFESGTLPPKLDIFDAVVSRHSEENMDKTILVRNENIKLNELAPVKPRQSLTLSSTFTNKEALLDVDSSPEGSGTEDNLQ


Legend:
[1] = biological target: T1, nematode high-affinity choline transporter cho-1 (C48D1.3); assay: [3H] choline uptake of Xenopus oocytes injected with nematode cho-1 (C48D1.3) cRNA; type: cell-based, C. elegans
Procedure: (§1) In the presence of cap analog, cRNA was synthesized in vitro with SP6 or T7 RNA polymerase. 20 to 30 ng capped RNA was microinjected into oocytes (stage V to VI) of Xenopus. […] The oocytes completing uptake were solubilized with 10% SDS, and the amount of [^3H] was measured by a liquid scintillation counter.

[2] = biological target: T2, rat CHT1 (high-affinity choline transporter); assay: [3H] choline uptake of Xenopus oocytes injected with CHT1 cRNA; type: cell-based
Procedure: as §1, with “Xenopus. The uptake was measured in basically same manner as described previously (Nature 360, 467-471, 1992).” for “Xenopus.”

[3] = tested on: endogenous choline uptake of control oocytes; assay: Choline uptake of control Xenopus oocytes injected with water; type: cell-based; settings: 10 μM HC3, oocytes injected with water
Procedure: as §1, with “Xenopus. The uptake was measured in basically same manner as described previously (Nature 360, 467-471, 1992).” for “Xenopus.”

[4] = tested on: high-affinity uptake of choline in brain synaptosomes; settings: cited from earlier work
[5] = tested on: low-affinity uptake of choline, distributed in every cells; settings: read-out: Ki of HC3 for low-affinity uptake of choline, higher HC3 concentration; cited from earlier work
[6] = substrate: C[N+](C)(C)CCO; assay: cells, lysate or membranes; settings: other: Michaelis-Menten fit, water-injected uptake subtracted, n=3; pH 7.4

Row | Molecule | Ki [1] [nM] | inhibition of cho-1 promoted choline uptake ([1]; 1 μM HC3, Xenopus oocytes) | Ki [2] [nM] | inhibition of choline uptake of CHT1 ([2]; 0.1 μM HC3) | inhibition of Na+-dependent choline uptake of CHT1 ([2]; CHT1 expressed in Xenopus oocytes, concentration not given) | inhibition of choline uptake in control [3] | inhibition of high-affinity uptake of choline ([4]; 1 μM HC3, brain synaptosomes of mammals) | Ki ([4]; read-out: Ki of HC3 for high-affinity uptake of choline, brain synaptosomes of mammals) [nM] | Ki [5] [nM] | Km [6] [µM]
1 | C[N+]1(C)CCOC(O)(c2ccc(-c3ccc(C4(O)C[N+](C)(C)CCO4)cc3)cc2)C1 (stereo not shown) [HC3, hemicholinium-3] | 50 | inhibited | 2 to 3 | completely inhibited | completely inhibited | only slight inhibition | completely inhibited | 10 to 100 | 50000 | –
2 | rat CHT1 (high-affinity choline transporter) (Rattus norvegicus) (protein) MPFHVEGLVAIILFYLLIFLVGIWAAWKTKNSGNAEERSEAIIVGGRDIGLLVGGFTMTATWVGGGYINGTAEAVYGPGCGLAWAQAPIGYSLSLILGGLFFAKPMRSKGYVTMLDPFQQIYGKRMGGLLFIPALMGEMFWAAAIFSALGATISVIIDVDVNISVIVSALIAILYTLVGGLYSVAYTDVVQLFCIFIGLWISVPFALSHPAVTDIGFTAVHAKYQSPWLGTIESVEVYTWLDNFLLLMLGGIPWQAYFQRVLSSSSATYAQVLSFLAAFGCLVMALPAICIGAIGASTDWNQTAYGFPDPKTKEEADMILPIVLQYLCPVYISFFGLGAVSAAVMSSADSSILSASSMFARNIYQLSFRQNASDKEIVWVMRITVFVFGASATAMALLTKTVYGLWYLSSDLVYIIIFPQLLCVLFIKGTNTYGAVAGYIFGLFLRITGGEPYLYLQPLIFYPGYYPDKNGIYNQRFPFKTLSMVTSFFTNICVSYLAKYLFESGTLPPKLDIFDAVVSRHSEENMDKTILVRNENIKLNELAPVKPRQSLTLSSTFTNKEALLDVDSSPEGSGTEDNLQ | – | – | – | – | – | – | – | – | – | 2.2 ± 0.2
